Tested on: papillomata
Experiment: Anti-cancer activity: mouse skin papilloma test (7,12-dimethylbenzanthracene / croton oil induced)
Format: in vivo, mouse (ICR strain, female)
Conditions: administered orally as 20 mg/ml solution in groundnut oil, 10 times for 14 days; total diameter on the 14th day vs. prior to administration
Protocol: A mouse (ICR strain, female, 50 days age) was shaved at the back of neck (to the extent of 5 cm^2). 7,12-Dimethylbenzo-[2]-anthracene was dissolved in acetone to give-75 mg /100 ml. solution. The so prepared solution was applied to the mouse on the 60th day of age and further on the 75th day of aqe in the amount of 0.2 ml per mouse.
Croton oil was dissolved in acetone to give 250 mg/ 100 ml solution, and the so prepared solution was applied to the mouse in the amount of 0.2 ml per mouse,-twice a week until the treatment was started. When 3 - 7 papillomata (diamether of 3 - 8 mm for each, and total diameter of 30 - 60 mm ) were produced for a mouse, the treatment was started.
The compound to be tested (test compound) was dissolved in groundnut oil to give 20' mg /ml solution, and administered orally to the mouse. The solution was administered 10 times for 14 days (once a day), and the diameters of the papillomata were measured on the 14th day to determine the total diameter for each mouse. Ratio of increase or decrease of the papillomata was calculated from the total diameter on the 14th day and the total diameter measured prior to the starting of administration of the test compound. This value was adopted' for evaluating the anti-cancer activity.

In the case of CCOC(=O)C=C(C)C=CC=C(C)CCCC(C)CCC=C(C)C (stereo not drawn) [(3), ethyl 3,7,11,15-tetramethyl-2,4,6,14-hexadecatetra-enoate], the “Ratio of increase or decrease of papillomas(%)” value is reported as −10.2%.
With CC(C)=CCCC(C)=CCCC(C)=CC=CC(C)=CC(N)=O [(5), 3,7,11,15-tetramethyl-2,4,6,10,14-hexadecapentaeno-amide] the “Ratio of increase or decrease of papillomas(%)” value was −25.5%.
With CC(=O)CCC=C(C)CCC=C(C)CCC=C(C)CCC=C(C)C [(9), 6,10,14,18-tetramethyl-5,9,13,17-nonadecatetraen-2-on] the “Ratio of increase or decrease of papillomas(%)” value was −8.2%.
For CCOC(=O)C=C(C)C=CC=C(C)CCC=C(C)CCC=C(C)C [(6), ethyl 3,7,11,15-tetramethyl-2,4,6,10,14-hexadeca-pentaenoate], the “Ratio of increase or decrease of papillomas(%)” value was −17.5%.
CC(C)=CCCC(C)CCCC(C)=CC=CC(C)=CC(=O)O (stereo not drawn) [(2), 3,7,11,15-tetramethyl-2,4,6,14-hexadecatetraenoic acid] was tested, and the “Ratio of increase or decrease of papillomas(%)” value was −19.5%.
With CC(C)=CCCC(C)=CCCC(C)=CCCC(C)=CC=CC(C)=CC(=O)O [(1), 3,7,11,15,19-pentamethyl-2,4,6,10,14,18-eicosahexa-enoic acid] the “Ratio of increase or decrease of papillomas(%)” value was −24.0%.
With CC(C)=CCCC(C)=CCCC(C)=CCCC(C)=CC(=O)O [(8), 3,7,11,15-tetramethyl-2,6,10,14-hexadecatetraenoic acid] the “Ratio of increase or decrease of papillomas(%)” value was −6.5%.
For CC(=O)C=CC=C(C)CCC=C(C)CCC=C(C)CCC=C(C)C [(7), 6,10,14,18-tetramethyl-3,5,9,13,17-nonadecapentaen-2-on], the “Ratio of increase or decrease of papillomas(%)” value was −12.7%.
CC(C)=CCCC(C)=CC=CC(C)=CC=CC(C)=CC(=O)O [(4), 3,7,11,15-tetramethyl-2,4,6,8,10,14-hexadecahexaeno-ic acid] was tested, and the “Ratio of increase or decrease of papillomas(%)” value was −26.3%.

— EP0059258A1, “Pharmaceutical preparations comprising polyprenyl compounds, especially as anti-cancer agents, and pharmaceutical compositions for the prevention and treatment of cancer and skin diseases” (Eisai Co., Ltd., priority 1980, dated 1982)
